Laboratory results reported in the supplement of paper PMC8671470.
Where a name gives a salt, the structure may show the parent alone.

Tests used:
Settings in all cases: 72 h
[1] = system: myeloid leukemia patient primary cells Pat.14; test: area under dose-response curve (viability, 1 nM-10 uM) (fraction (0-1)); higher = more sensitive
Description: (§1)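 AUC (0–1, higher = more sensitive) of the 5-point dose–response (1 nM–10 µM, 72 h, CellTiter-Glo) in primary AML/CML patient mononuclear cells. 0.030103 is the floor for inactive compounds.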

[2] = system: myeloid leukemia patient primary cells Pat.13; test: as above
Description: as §1

[3] = system: myeloid leukemia patient primary cells Pat.11; test: as above
Description: as §1

[4] = system: myeloid leukemia patient primary cells Pat.7; test: as above
Description: as §1

[5] = system: myeloid leukemia patient primary cells Pat.15; test: as above
Description: as §1

[6] = system: myeloid leukemia patient primary cells Pat.1; test: as above
Description: as §1

[7] = system: myeloid leukemia patient primary cells Pat.6; test: as above
Description: as §1

[8] = system: myeloid leukemia patient primary cells Pat.2; test: as above
Description: as §1

[9] = system: myeloid leukemia patient primary cells Pat.8; test: as above
Description: as §1

[10] = system: myeloid leukemia patient primary cells Pat.3; test: as above
Description: as §1

[11] = system: myeloid leukemia patient primary cells Pat.5; test: as above
Description: as §1

[12] = system: myeloid leukemia patient primary cells Pat.10; test: as above
Description: as §1

[13] = system: myeloid leukemia patient primary cells Pat.4; test: as above
Description: as §1

[14] = system: myeloid leukemia patient primary cells Pat.9; test: as above
Description: as §1

[15] = system: myeloid leukemia patient primary cells Pat.12; test: as above
Description: as §1

Mono-Mac-6 = test: cell viability (% survival relative to DMSO control); higher = less cytotoxic
Description: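 8x8 drug-combination matrices (0–5000 nM; rosiglitazone and lestaurtinib 0–1000 nM) were run in Mono-Mac-6 cells for 72 h with CellTiter-Glo read-out. Survival is normalised to DMSO and 10 µM bortezomib and clipped at 100%.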

C=CCN(C)CCCCCCOc1ccc(C(=O)c2ccc(Br)cc2)c(F)c1.O=C(O)/C=C/C(=O)O [Ro 48-8071 fumarate]
Settings	area under dose-response curve
[1]	0.0802
[2]	0.0673
[3]	0.0457
[4]	0.217
[5]	< 0.0301
[6]	0.109
[7]	0.0624
[8]	0.0431
[9]	0.0337
[10]	0.576
[11]	0.146
[12]	0.146
[13]	0.0305
[14]	0.13

c1cc(-c2cnn3cc(-c4ccc(OCCN5CCCCC5)cc4)cnc23)ccn1 [Dorsomorphin]
Settings	area under dose-response curve
[1]	< 0.0301
[2]	0.195
[3]	0.106
[4]	0.0504
[5]	0.0705
[6]	0.142
[7]	< 0.0301
[8]	< 0.0301
[10]	0.0457
[11]	0.508
[12]	0.342
[13]	0.182
[14]	0.488
[15]	< 0.0301

CC(=O)Nc1nc(C)c(-c2ccc(Cl)c(S(=O)(=O)NCCO)c2)s1 [PIK93]
Settings	area under dose-response curve
[1]	0.139
[2]	0.214
[3]	0.204
[4]	0.16
[5]	0.417
[6]	0.365
[7]	0.0757
[8]	0.0748
[9]	0.0853
[10]	0.545
[11]	0.907
[12]	0.728
[13]	0.401
[14]	0.82
[15]	< 0.0301

CCN(CC)C(=S)SSC(=S)N(CC)CC [Disulfiram]
Settings	area under dose-response curve
[1]	0.19
[2]	0.412
[3]	0.374
[4]	0.153
[5]	0.623
[6]	0.398
[7]	0.414
[8]	0.512
[9]	0.503
[10]	0.164
[11]	0.303
[13]	0.373
[14]	0.257
[15]	0.485

O=C(/C=C/c1ccc(O)c(O)c1)OCCc1ccccc1 [Caffeic acid phenethyl ester]
Settings	area under dose-response curve
[1]	0.242
[2]	0.082
[3]	0.14
[4]	0.323
[5]	0.145
[6]	0.155
[7]	0.168
[9]	0.297
[10]	0.467
[11]	0.411
[12]	0.539
[13]	0.328
[14]	0.563
[15]	0.201

CN(CCOc1ccc(Cc2sc(O)nc2O)cc1)c1ccccn1 [Rosiglitazone] + CC(C)(Cc1ccccc1)NCC(O)c1ccc(O)c(NS(C)(=O)=O)c1 [Zinterol hydrochloride]
cell viability [%], Mono-Mac-6
Settings	drug1 concentration 1 nM	drug1 concentration 5 nM	drug1 concentration 10 nM	drug1 concentration 50 nM	drug1 concentration 100 nM	drug1 concentration 500 nM	drug1 concentration 1000 nM
drug2 concentration 5 nM	83	77.8	> 100	79.7	78.7	27.6	21.7
drug2 concentration 10 nM	66.3	76	74.4	89.6	60.8	20.5	24.5
drug2 concentration 50 nM	86.8	79.1	74.5	76.7	45.8	29.2	28.8
drug2 concentration 100 nM	70.8	77.4	78.3	62.9	49.7	28	18.9
drug2 concentration 500 nM	74.7	67.8	67.6	66.1	47.9	28.4	27.1
drug2 concentration 1000 nM	76.3	86.7	74.7	66.2	45.4	20.5	32.7
drug2 concentration 5000 nM	55.9	64.8	51.4	46.9	49.4	22	0

O=C1C(SCCO)=C(SCCO)C(=O)c2ccccc21
Settings	area under dose-response curve
[1]	0.421
[2]	0.147
[3]	0.355
[4]	0.45
[5]	0.444
[6]	0.378
[7]	0.187
[8]	0.234
[9]	0.174
[10]	0.33
[11]	0.455
[13]	0.354
[14]	0.455
[15]	0.385

Cc1[nH]nc(C(F)(F)F)c1Cc1sc2c(c1C(=O)N1C[C@](C)(O)CO1)c(=O)n(C)c(=O)n2C(C)C [AZD3965]
Settings	area under dose-response curve
[1]	< 0.0301
[2]	< 0.0301
[3]	< 0.0301
[4]	< 0.0301
[5]	< 0.0301
[6]	< 0.0301
[7]	< 0.0301
[8]	< 0.0301
[9]	< 0.0301
[10]	< 0.0301
[11]	0.149
[12]	0.167
[13]	< 0.0301
[14]	< 0.0301
[15]	< 0.0301

O=C(O)CC[N+](=O)[O-] [3-nitropropionic acid] + CCn1c(=Cc2cccc[n+]2CC)sc(=C2Sc3ccccc3N2C)c1=O [MKT 077]
cell viability [%], Mono-Mac-6
Settings	drug1 concentration 5 nM	drug1 concentration 10 nM	drug1 concentration 50 nM	drug1 concentration 100 nM	drug1 concentration 500 nM	drug1 concentration 1000 nM	drug1 concentration 5000 nM
drug2 concentration 5 nM	> 100	98.1	> 100	90.2	> 100	> 100	90.3
drug2 concentration 10 nM	> 100	> 100	> 100	> 100	> 100	> 100	> 100
drug2 concentration 50 nM	> 100	> 100	> 100	91	96.5	86	> 100
drug2 concentration 100 nM	84.8	> 100	> 100	> 100	> 100	> 100	76.8
drug2 concentration 500 nM	99.9	82.8	> 100	> 100	> 100	84.4	> 100
drug2 concentration 1000 nM	> 100	> 100	> 100	> 100	96.7	87	82.4
drug2 concentration 5000 nM	79.1	74.4	> 100	> 100	63.8	> 100	> 100

CN(Cc1cnc2nc(N)nc(N)c2n1)c1ccc(C(=O)N[C@@H](CCC(=O)O)C(=O)O)cc1 [Methotrexate]
Settings	area under dose-response curve
[1]	0.306
[2]	< 0.0301
[3]	< 0.0301
[4]	0.399
[5]	< 0.0301
[6]	< 0.0301
[7]	< 0.0301
[9]	< 0.0301
[10]	0.469
[11]	0.384
[12]	0.294
[13]	< 0.0301
[14]	0.526
[15]	< 0.0301

C[C@]12C=CC(=O)C=C1CC[C@@H]1[C@@H]2[C@@H](O)C[C@@]2(C)[C@H]1CC[C@]2(O)C(=O)CO [Prednisolone]
Settings	area under dose-response curve
[1]	< 0.0301
[2]	< 0.0301
[4]	< 0.0301
[6]	< 0.0301
[9]	0.0885
[10]	0.227
[11]	< 0.0301
[12]	0.678
[14]	< 0.0301
[15]	< 0.0301

O=c1cc(N2CCOCC2)oc2c(-c3ccccc3)cccc12
Settings	area under dose-response curve
[1]	0.0381
[2]	0.0372
[3]	0.0446
[4]	< 0.0301
[5]	0.136
[6]	0.14
[7]	< 0.0301
[8]	0.0446
[10]	< 0.0301
[11]	0.782
[12]	0.771
[13]	0.18
[14]	0.736
[15]	< 0.0301
